SMILES strings stand for the structures. Counter-ions that a name gives are not always drawn.

In data set [1] the test system is Purkinje-Fasern aus Hundeherzen. In words: Electrophysiological study on Purkinje fibres from dog hearts (Vmax, conduction delay). In kind it is cell-based, Hunde. The settings on record: Canis lupus familiaris, read-out: C20_Vmax. From the text:
Die antiarrhythmische Wirksamkeit der erfindungsgemäßen Verbindungen wurde sowohl anhand von elektrophysiologischen Studien an Purkinje-Fasern aus Hundeherzen sowie mit Hilfe von Ouabain-induzierten ventrikulären Tachykardien bei Hunden bestimmt. […]
Als zusätzliches Kriterium wurde der Vorzeitigkeitsindex (Prematurity-Faktor) bestimmt, der die erwünschte Wirksamkeit der erfindungsgemäßen Verbindungen bei frühzeitig einfallenden Extrasystolen charakterisiert.

Data set [2] is described as follows: Effect on contraction force of the heart, guinea pig papillary muscle (negative inotropy). In kind it is cell-based, Meerschweinchen. Particulars: concentration that reduces the contraction of the papillary muscle by 20 %, read-out: C20_CF. An excerpt: Die Wirkung auf die Kontraktionskraft des Herzens wurde am Meerschweinchenpapillarmuskel untersucht. Hämodynamische Studien wurden bei gesunden, wie auch akut infarzierten Hunden durchgeführt.

For the compound `CC(C)(C)NCC(O)COc1ccccc1CCC(=O)c1ccccc1` (stereo not drawn) [Beispiel 48, 1-Phenyl-3-[2ʹ-(2-hydroxy-3-tert.-butylamino-propoxy)-phenyl]-1-propanon-hydrochlorid], the IC20 was 1 µM in data set [1] and 3 µM in data set [2].

`Cc1ccc(C(=O)CCc2ccccc2OCC(O)CNC(C)(C)C)cc1` (stereo not drawn) [Beispiel 44, 1-(4-Methylphenyl)-3-[2ʹ-(2-hydroxy-3-tert.-butylamino-propoxy)-phenyl]-1-propanon-hydrochlorid]: the IC20 in data set [1] was determined as 2.6 µM; in data set [2], 6 µM.

For `COc1ccc(C(=O)CCc2ccccc2OCC(O)CNCC(C)O)cc1OC` (stereo not drawn) [Beispiel 7, 1-(3,4-Dimethoxyphenyl)-3-[2ʹ-(2-hydroxy-3-(2ʺ-hydroxypropylamino)-propoxy)-phenyl]-1-propanon-hydrochlorid], the IC20 came out at 5.7 µM in data set [1] and 18 µM in data set [2].

As to `COc1cccc(C(=O)CCc2ccccc2OCC(O)CNC(C)(C)C)c1` (stereo not drawn) [Beispiel 27, 1-(3-Methoxyphenyl)-3-[2ʹ-(2-hydroxy-3-tert.-butylamino-propoxy)-phenyl]-1-propanon-hydrochlorid], the IC20 in data set [1] turned out to be 1.6 µM; in data set [2] it was 4 µM.

In the case of `O=C(CCc1ccccc1OCC(O)CNC1CCCCC1)c1ccccc1` (stereo not drawn) [Beispiel 46, 1-Phenyl-3-[2ʹ-(2-hydroxy-3-cyclohexylamino-propoxy)-phenyl]-1-propanon-hydrochlorid], the IC20 in data set [1] came out at 2.2 µM; in data set [2], 2 µM.

As for `COc1ccccc1C(=O)CCc1ccccc1OCC(O)CNC(C)(C)C` (stereo not drawn) [Beispiel 38, 1-(2-Methoxyphenyl)-3-[2ʹ-(2-hydroxy-3-tert.-butylamino-propoxy)-phenyl]-1-propanon-hydrochlorid], the IC20 in data set [1] is 1.7 µM; in data set [2], 7 µM.

Consider `COc1cccc(C(=O)CCc2ccccc2OCC(O)CNC(C)C)c1` (stereo not drawn) [Beispiel 24, 1-(3-Methoxyphenyl)-3-[2ʹ-(2-hydroxy-3-isopropylamino-propoxy)-phenyl]-1-propanon-hydrochlorid], for which the values for the IC20 in data set [1] and in data set [2] were 1.6 µM and 10 µM, respectively.

In the case of `COc1cc(C(=O)CCc2ccccc2OCC(O)CNC2CCCCC2)cc(OC)c1OC` (stereo not drawn) [Beispiel 16, 1-(3,4,5-Trimethoxyphenyl)-3-[2ʹ-(2-hydroxy-3-cyclohexylamino-propoxy)-phenyl]-1-propanon-hydrochlorid], the IC20 came to 11.9 µM in data set [1] and 9 µM in data set [2].

With `CCC(C)(C)NCC(O)COc1ccccc1CCC(=O)c1ccc(OC)c(OC)c1` (stereo not drawn) [Beispiel 2, 1-(3,4-Dimethoxyphenyl)-3-[2ʹ-(2-hydroxy-3-tert.-pentylamino-propoxy)-phenyl]-1-propanon-hydrochlorid], the IC20 came out at 3.6 µM in data set [1] and 8 µM in data set [2].

`COc1cc(C(=O)CCc2ccccc2OCC(O)CNC(C)C)cc(OC)c1OC` (stereo not drawn) [Beispiel 12, 1-(3,4,5-Trimethoxyphenyl)-3-[2ʹ-(2-hydroxy-3-isopropylamino-propoxy)-phenyl]-1-propanon-hydrochlorid]: the IC20 in data set [1] turned out to be 5.8 µM; in data set [2], 18 µM.

For the compound `COc1ccc(C(=O)CCc2ccccc2OCC(O)CNCCO)cc1OC` (stereo not drawn) [Beispiel 8, 1-(3,4-Dimethoxyphenyl)-3-[2ʹ-(2-hydroxy-3-(2ʺ-hydroxyethylamino)-propoxy)-phenyl]-1-propanon-hydrochlorid], the IC20 is 8.3 µM in data set [1] and 13 µM in data set [2].

Consider `COc1ccc(C(=O)CCc2ccccc2OCC(O)CN2CCCCC2)cc1OC` (stereo not drawn) [Beispiel 6, 1-(3,4-Dimethoxyphenyl)-3-[2ʹ-(2-hydroxy-3-piperidino-propoxy)-phenyl]-1-propanon-hydrochlorid], for which the IC20 stood at 11.3 µM in data set [1] and 20 µM in data set [2].

Regarding `CCC(CO)NCC(O)COc1ccccc1CCC(=O)c1ccc(OC)c(OC)c1` (stereo not drawn) [Beispiel 9, 1-(3,4-Dimethoxyphenyl)-3-[2ʹ-(2-hydroxy-3-(1ʺ-hydroxybut-2-ylamino)-propoxy)-phenyl]-1-propanon-oxalat], the IC20 in data set [1] came to 10.2 µM; in data set [2] it was 25 µM.

On to `COc1ccc(C(=O)CCc2ccccc2OCC(O)CNC(C)(C)C)cc1OC` (stereo not drawn) [Beispiel 5, 1-(3,4-Dimethoxyphenyl)-3-[2ʹ-(2-hydroxy-3-tert.-butylamino-propoxy)-phenyl]-1-propanon-hydrochlorid], for which the IC20 in data set [1] was 4.4 µM; in data set [2], 12 µM.

As for `CCCNCC(O)COc1ccccc1CCC(=O)c1ccc(OC)c(OC)c1` (stereo not drawn) [Beispiel 1, 1-(3,4-Dimethoxyphenyl)-3-[2ʹ-(2-hydroxy-3-n-propylamino-propoxy)-phenyl]-1-propanon-hydrochlorid], the results for the IC20 in data set [1] and in data set [2] were 12.5 µM and 15 µM, respectively.

As for `CCCNCC(O)COc1ccccc1CCC(=O)c1cccc(OC)c1` (stereo not drawn) [Beispiel 26, 1-(3-Methoxyphenyl)-3-[2ʹ-(2-hydroxy-3-n-propylamino-propoxy)-phenyl]-1-propanon-hydrochlorid], the figures for the IC20 in data set [1] and in data set [2] were 1.7 µM and 3 µM, respectively.

Take `COc1ccc(C(=O)CCc2ccccc2OCC(O)CNC(C)C)cc1OC` (stereo not drawn) [Beispiel 4, 1-(3,4-Dimethoxyphenyl)-3-[2ʹ-(2-hydroxy-3-isopropylamino-propoxy)-phenyl]-1-propanon-hydrochlorid]: the values for the IC20 in data set [1] and in data set [2] were 4.8 µM and 22 µM, respectively.

`O=C(CCc1ccccc1OCC(O)CN1CCCCC1)c1ccccc1` (stereo not drawn) [Beispiel 47, 1-Phenyl-3-[2ʹ-(2-hydroxy-3-piperidino-propoxy)-phenyl]-1-propanon-hydrochlorid]: the values for the IC20 in data set [1] and in data set [2] were 0.3 µM and 2 µM, respectively.
